Drawing on patent publication US20200216439A1, “HETERO-1,5,6,7-TETRAHYDRO-4H-INDOL-4-ONES” (BAYER PHARMA AKTIENGESELLSCHAFT, priority 2015, published 2020), this text covers IC50 for 28 compounds.

As usually defined, the IC50 is the point on the concentration scale where inhibition reaches its midpoint.

This assay addresses T1, catalytic domain of human Bub1 (amino acids 704-1085) (Homo sapiens, UniProt O43683).
T1 construct: catalytic domain of human Bub1 (amino acids 704-1085); His6 (N); made in house; host or cells: Hi5 insect cells
Kind of assay: Bub1 kinase assay (TR-FRET). It is filed as biochemical. The note with it: TR-FRET; ATP 10 μM, peptide substrate 1 μM; 60 min at 22° C.; average or median if tested more than once; read-out: Inhibition of Bub1 kinase IC50. In short, it runs like this: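 Eleven concentrations (0.1 nM–20 μM, duplicate) fitted by 4-parameter logistic for IC50. Read-out: EDTA-stopped TR-FRET (665/620 nm) detecting anti-phosphoserine binding to biotin-peptide (1 μM). Reaction used 10 μM ATP, 60 min at 22 °C, after 15 min compound preincubation with His-tagged human Bub1 704-1085.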
(In general: In TR-FRET formats the signal depends on donor and acceptor labels being close together.)

The structures appear in SMILES notation.

T1 sequence (O43683 704-1085): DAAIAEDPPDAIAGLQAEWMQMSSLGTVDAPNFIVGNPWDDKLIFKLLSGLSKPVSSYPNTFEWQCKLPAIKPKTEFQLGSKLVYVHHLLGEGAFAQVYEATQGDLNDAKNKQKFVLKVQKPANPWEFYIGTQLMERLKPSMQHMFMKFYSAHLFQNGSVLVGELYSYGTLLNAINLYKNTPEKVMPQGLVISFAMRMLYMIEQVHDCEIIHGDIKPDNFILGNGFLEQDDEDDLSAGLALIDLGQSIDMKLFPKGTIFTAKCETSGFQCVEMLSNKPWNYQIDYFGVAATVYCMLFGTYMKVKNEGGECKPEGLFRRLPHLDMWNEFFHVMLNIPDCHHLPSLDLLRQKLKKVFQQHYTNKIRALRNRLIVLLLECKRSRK

Turning to `CC(=O)Nc1cc(-c2[nH]c3c(c2Nc2ccccc2)C(=O)CN(C(=O)OCCF)C3)ccn1` [Example 184, 2-Fluoroethyl 2-(2-acetamidopyridin-4-yl)-3-anilino-4-oxo-1,4,5,7-tetrahydro-6H-pyrrolo[2,3-c]pyridine-6-carboxylate], the IC50 is 8 nM.
In the case of `CCOC(=O)N1CC(=O)c2c([nH]c(-c3ccncc3)c2Nc2ccccc2)C1` [Example 76, Ethyl 4-oxo-3-(phenylamino)-2-(pyridin-4-yl)-1,4,5,7-tetrahydro-6H-pyrrolo[2,3-c]pyridine-6-carboxylate], the IC50 came to 7 nM.
The value for `CC(=O)Nc1cc(-c2[nH]c3c(c2Nc2ccccc2)C(=O)CN(C(=O)CC(C)(C)C(F)(F)F)C3)ccn1` [Example 219, N-{4-[3-Anilino-4-oxo-6-(4,4,4-trifluoro-3,3-dimethylbutanoyl)-4,5,6,7-tetrahydro-1H-pyrrolo[2,3-c]pyridin-2-yl]pyridin-2-yl}acetamide] was 22 nM; that for `COc1cnccc1-c1[nH]c2c(c1Nc1ccccc1)C(=O)CN(C(=O)C1CC1)C2` [Example 108, 6-(Cyclopropylcarbonyl)-2-(3-methoxypyridin-4-yl)-3-(phenylamino)-1,5,6,7-tetrahydro-4H-pyrrolo[2,3-c]pyridin-4-one] was 8 nM; that for `O=C1CN(S(=O)(=O)c2cnc[nH]2)Cc2[nH]c(-c3ccnc(NC(=O)[C@@H]4C[C@@H]4F)c3)c(Nc3ccccc3)c21` [Example 204, (1S,2S)-2-Fluoro-N-4-[6-(1H-imidazol-5-ylsulfonyl)-4-oxo-3-(phenylamino)-4,5,6,7-tetrahydro-1H-pyrrolo[2,3-c]pyridin-2-yl]pyridin-2-ylcyclopropanecarboxamide] was 3 nM.
To `O=C1CN(C(=O)c2ccncc2)Cc2[nH]c(-c3ccncc3)c(Nc3ccccc3)c21` [Example 63, 3-(phenylamino)-2-(pyridin-4-yl)-6-(pyridin-4-ylcarbonyl)-1,5,6,7-tetrahydro-4H-pyrrolo[2,3-c]pyridin-4-one] belongs 9 nM; to `O=C1CN(C(=O)C2CC2)Cc2[nH]c(-c3ccnc(NC(=O)[C@@H]4C[C@@H]4F)c3)c(Nc3ccccc3)c21` [Example 212, (1S,2S)—N-4-[6-(Cyclopropylcarbonyl)-4-oxo-3-(phenylamino)-4,5,6,7-tetrahydro-1H-pyrrolo[2,3-c]pyridin-2-yl]pyridin-2-yl-2-fluorocyclopropanecarboxamide], 3 nM; to `CC(C)(C)OC(=O)N1CC(=O)c2c([nH]c(-c3ccncc3OCC3CC3)c2Nc2ccccc2)C1` [Example 223, tert-Butyl 3-anilino-2-[3-(cyclopropylmethoxy)pyridin-4-yl]-4-oxo-1,4,5,7-tetrahydro-6H-pyrrolo[2,3-c]pyridine-6-carboxylate], 14 nM.
The value for `COc1cc(C(=O)Nc2cc(-c3c(Nc4ccccc4)c4c(n3C)CN(C(=O)OC(C)(C)C)CC4=O)ccn2)ccc1F` [Example 256, tert-Butyl 2-2-[(4-fluoro-3-methoxybenzoyl)amino]pyridin-4-yl-1-methyl-4-oxo-3-(phenylamino)-1,4,5,7-tetrahydro-6H-pyrrolo[2,3-c]pyridine-6-carboxylate] was 936 nM; that for `CC(=O)Nc1cc(-c2[nH]c3c(c2Nc2ccccc2)C(=O)CN(C(=O)CCS(C)(=O)=O)C3)ccn1` [Example 210, N-(4-6-[3-(Methylsulfonyl)propanoyl]-4-oxo-3-(phenylamino)-4,5,6,7-tetrahydro-1H-pyrrolo[2,3-c]pyridin-2-ylpyridin-2-yl)acetamide] was 3 nM; that for `O=C1COCc2[nH]c(-c3ccncc3C(F)(F)F)c(Nc3ccccc3)c21` [Example 300, 3-(Phenylamino)-2-[3-(trifluoromethyl)pyridin-4-yl]-1,7-dihydropyrano[3,4-b]pyrrol-4(5H)-one] was 8210 nM.
In the case of `CNC(=O)N1CC(=O)c2c([nH]c(-c3ccncc3OCC(F)F)c2Nc2ccccc2)C1` [Example 237, 2-[3-(2,2-Difluoroethoxy)pyridin-4-yl]-N-methyl-4-oxo-3-(phenylamino)-1,4,5,7-tetrahydro-6H-pyrrolo[2,3-c]pyridine-6-carboxamide], the IC50 came out at 18 nM.
The value for `CC(=O)Nc1cc(-c2[nH]c3c(c2Nc2ccc(F)cc2)C(=O)CN(C(C)=O)C3)ccn1` [Example 312, N-(4-(6-Acetyl-3-[(4-fluorophenyl)amino]-4-oxo-4,5,6,7-tetrahydro-1H-pyrrolo[2,3-c]pyridin-2-yl)pyridin-2-yl)acetamide] was 16 nM.
For the compound `COCCOc1cnccc1-c1[nH]c2c(c1Nc1ccccc1)C(=O)CN(C(=O)OC)C2` [Example 248, Methyl 2-[3-(2-methoxyethoxy)pyridin-4-yl]-4-oxo-3-(phenylamino)-1,4,5,7-tetrahydro-6H-pyrrolo[2,3-c]pyridine-6-carboxylate], the IC50 was 5 nM.
To `CC(C)(C)OC(=O)N1CC(=O)c2c([nH]c(-c3ccnc(NC(=O)[C@@H]4C[C@@H]4F)c3)c2Nc2ccccc2)C1` [Example 196, tert-Butyl 3-anilino-2-[2-({[(1S,2S)-2-fluorocyclopropyl]carbonyl}amino)pyridin-4-yl]-4-oxo-1,4,5,7-tetrahydro-6H-pyrrolo[2,3-c]pyridine-6-carboxylate] belongs 7 nM; to `COc1ccc(C(=O)Nc2cc(-c3[nH]c4c(c3Nc3ccccc3)C(=O)CN(C(=O)N3CCOCC3)C4)ccn2)cc1F` [Example 291, 3-Fluoro-4-methoxy-N-4-[6-(morpholin-4-ylcarbonyl)-4-oxo-3-(phenylamino)-4,5,6,7-tetrahydro-1H-pyrrolo[2,3-c]pyridin-2-yl]pyridin-2-ylbenzamide], 6 nM; to `CC(=O)Nc1cc(-c2[nH]c3c(c2Nc2ccccc2)C(=O)CN(C(=O)c2cocn2)C3)ccn1` [Example 195, N-{4-[3-Anilino-6(1,3-oxazol-4-ylcarbonyl)-4-oxo-4,5,6,7-tetrahydro-1H-pyrrolo[2,3-c]pyridin-2-yl]pyridin-2-yl}acetamide], 24 nM.
The value for `CC(C)(C)OC(=O)N1CC(=O)c2c([nH]c(-c3ccnc(NC(=O)[C@H]4C[C@H]4F)c3)c2Nc2ccccc2)C1` [Example 128, tert-Butyl 3-anilino-2-[2-({[(1R,2R)-2-fluorocyclopropyl]carbonyl}amino)pyridin-4-yl]-4-oxo-1,4,5,7-tetrahydro-6H-pyrrolo[2,3-c]pyridine-6-carboxylate] was 8 nM.
For the compound `CC(=O)N1CC(=O)c2c([nH]c(-c3ccncc3)c2Nc2ccccc2)C1` [Example 7, 6-Acetyl-3-(phenylamino)-2-(pyridin-4-yl)-1,5,6,7-tetrahydro-4H-pyrrolo[2,3-c]pyridin-4-one], the half-inhibitory concentration (IC50) turned out to be 4 nM.
Consider `CC(=O)Nc1cc(-c2[nH]c3c(c2Nc2ccc(C)cc2)C(=O)CNC3)ccn1` [Example 303, N-(4-{3-[(4-Methylphenyl)amino]4-oxo-4,5,6,7-tetrahydro-1H-pyrrolo[2,3-c]pyridin-2-yl}pyridin-2-yl)acetamide], for which the half-maximal inhibitory concentration (IC50) was found to be 1150 nM.
To `COc1ccc(C(=O)Nc2cc(-c3[nH]c4c(c3Nc3ccccc3)C(=O)CN(S(=O)(=O)N(C)C)C4)ccn2)cc1F` [Example 289, N-4-[6-(Dimethylsulfamoyl)-4-oxo-3-(phenylamino)-4,5,6,7-tetrahydr-1H-pyrrolo[2,3-c]pyridin-2-yl]pyridin-2-yl-3-fluoro-4-methoxybenzamide] belongs 6 nM; to `CS(=O)(=O)CC(=O)Nc1cc(-c2[nH]c3c(c2Nc2ccccc2)C(=O)COC3)ccn1` [Example 48, 2-(Methylsulfonyl)-N-{4-[4-oxo-3-(phenylamino)-1,4,5,7-tetrahydropyrano[3,4-b]pyrrol-2-yl]pyridin-2-yl}acetamide], 115 nM.
To `O=C1CNCc2[nH]c(-c3ccnc(NC(=O)C4CC4(F)F)c3)c(Nc3ccccc3)c21` (racemic) [Example 137, (1RS)—N-[4-(3-Anilino-4-oxo-4,5,6,7-tetrahydro-1H-pyrrolo[2,3-c]pyridin-2-yl)pyridin-2-yl]-2,2-difluorocyclopropanecarboxamide] belongs 64 nM; to `C[S+]([O-])CC(=O)Nc1cc(-c2[nH]c3c(c2Nc2ccccc2)C(=O)COC3)ccn1` (stereo not shown) [Example 47, 2-(Methylsulfinyl)-N-{4-[4-oxo-3-(phenylamino)-1,4,5,7-tetrahydropyrano[3,4-b]pyrrol-2-yl]pyridin-2-yl}acetamide], 341 nM; to `Cc1cnccc1-c1[nH]c2c(c1Nc1ccccc1)C(=O)CSC2` [Example 37, 2-(3-Methylpyridin-4-yl)-3-(phenylamino)-1,7-dihydrothiopyrano[3,4-b]pyrrol-4(5H)-one], 482 nM.
Consider `CC(C)(C)OC(=O)N1CC(=O)c2c([nH]c(-c3ccncc3OCC(F)F)c2Nc2ccccc2)C1` [Example 220, tert-Butyl 3-anilino-2-[3-(2,2-difluoroethoxy)pyridin-4-yl]-4-oxo-1,4,5,7-tetrahydro-6H-pyrrolo[2,3-c]pyridine-6-carboxylate], for which the IC50 amounted to 18 nM.
To `CCC(=O)N1CC(=O)c2c([nH]c(-c3ccnc(NC(C)=O)c3)c2Nc2ccccc2)C1` [Example 180, N-[4-(3-Anilino-4-oxo-6-propionyl-4,5,6,7-tetrahydro-1H-pyrrolo[2,3-c]pyridin-2-yl)pyridin-2-yl]acetamide] belongs 5 nM.
The value for `CC(C)(C)CC(=O)N1CC(=O)c2c([nH]c(-c3ccncc3)c2Nc2ccccc2)C1` [Example 58, 6-(3,3-Dimethylbutanoyl)-3-(phenylamino)-2-(pyridin-4-yl)-1,5,6,7-tetrahydro-4H-pyrrolo[2,3-c]pyridin-4-one] was 8 nM.
